This is an account of results in US9145411B2, “Substituted amino-pyrimidine derivatives” (Asana Biosciences, LLC, priority 2012, dated 2015).

Where only a bound is given, the exact number is not on record here.

The target of assay [1] is T1, PI3Kα (wild-type) (Homo sapiens, UniProt P42336).
T1 construct: made in house; host or cells: SF9 insect cells
Briefly: PI3 Kinase TR-FRET assay, PI3Kα (wild-type). The note with it: wild-type P110/P85α, 10 μM ATP. The class given is biochemical. An outline of the steps:
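Sf9-expressed, Ni-purified p110/p85α (5 ng) with PIP2 was preincubated with compound for 60 min at room temperature in buffer with 40 mM MgCl2 and 5 mM DTT. The reaction ran 30 min at room temperature with 10 μM PIP2 and 10 μM ATP. The TR-FRET 665/615 nm ratio was used to derive IC50 from dose-response curves.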

The target in assay [2] is T2, mTOR kinase (Homo sapiens, UniProt P42345).
T2 construct: purchased Millipore, USA
T2 sequence (P42345 1362-2549 limits assumed): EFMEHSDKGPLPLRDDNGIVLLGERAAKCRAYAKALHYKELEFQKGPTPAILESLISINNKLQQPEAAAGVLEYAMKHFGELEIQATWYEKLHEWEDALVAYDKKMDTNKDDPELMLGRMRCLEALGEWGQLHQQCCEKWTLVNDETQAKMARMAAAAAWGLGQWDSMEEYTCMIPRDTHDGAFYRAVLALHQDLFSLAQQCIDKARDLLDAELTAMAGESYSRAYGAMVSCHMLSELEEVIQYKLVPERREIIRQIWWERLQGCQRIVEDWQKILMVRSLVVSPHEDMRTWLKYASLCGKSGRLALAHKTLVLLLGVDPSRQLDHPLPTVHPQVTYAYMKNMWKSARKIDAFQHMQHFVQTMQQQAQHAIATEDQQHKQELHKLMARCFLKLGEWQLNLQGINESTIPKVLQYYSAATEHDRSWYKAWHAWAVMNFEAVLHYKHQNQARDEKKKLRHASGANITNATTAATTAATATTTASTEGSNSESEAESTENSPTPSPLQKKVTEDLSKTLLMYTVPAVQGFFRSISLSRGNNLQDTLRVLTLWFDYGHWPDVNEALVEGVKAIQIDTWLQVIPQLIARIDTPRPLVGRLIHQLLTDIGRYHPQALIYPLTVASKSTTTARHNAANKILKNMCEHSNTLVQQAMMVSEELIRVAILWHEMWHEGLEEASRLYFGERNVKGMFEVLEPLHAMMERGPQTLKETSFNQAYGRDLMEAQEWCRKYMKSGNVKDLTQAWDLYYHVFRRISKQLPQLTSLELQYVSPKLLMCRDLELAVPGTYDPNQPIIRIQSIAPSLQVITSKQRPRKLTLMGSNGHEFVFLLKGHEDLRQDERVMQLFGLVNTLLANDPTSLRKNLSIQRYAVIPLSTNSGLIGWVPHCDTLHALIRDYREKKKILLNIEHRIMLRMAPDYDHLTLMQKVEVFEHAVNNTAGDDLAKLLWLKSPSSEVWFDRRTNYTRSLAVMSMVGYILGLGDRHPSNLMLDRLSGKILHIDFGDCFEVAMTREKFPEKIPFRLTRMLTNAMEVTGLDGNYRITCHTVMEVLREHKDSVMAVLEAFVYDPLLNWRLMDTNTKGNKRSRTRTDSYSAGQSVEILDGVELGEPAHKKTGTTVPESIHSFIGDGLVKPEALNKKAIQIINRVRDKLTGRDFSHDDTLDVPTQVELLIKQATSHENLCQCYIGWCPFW
Briefly: mTOR kinase TR-FRET assay. The class given is biochemical. Conditions: 20 μM ATP. An outline of the steps:
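Test compounds were pre-incubated 60 min with mTOR (5 ng), then ULight-p70 S6K (Thr389) peptide (50 nM) and ATP (20 μM) were added in HEPES 50 mM pH 7.5, EGTA, MnCl2 3 mM. After 60 min at room temperature, EDTA stop and Eu-anti-phospho antibody TR-FRET (665/615 nm) gave IC50 from sigmoidal variable-slope fits.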
A general note: Time-resolved FRET reads energy transfer from a long-lived donor to a nearby acceptor.

The test system of assay [3] is pAkt(S473). Briefly: In-cell Western assay, pAkt(S473), PC3 cells. Conditions: Homo sapiens, PC-3, 2 hours incubation. The class given is cell-based. On the procedure: (§1) Cells from human prostate cancer cell line PC3 (American Type Culture Collection (ATCC), Manassas, Va. 20108 USA) were seeded at an optimal density of 22,000 cell/well in 96-well plates containing Ham's F12K medium (90 μL) and incubated overnight. The compound dilutions were carried out in 100% DMSO followed by a dilution in the medium. Test compounds were added in serial dilutions to the wells and incubated for 2 hours. The cells were washed and fixed with 4% paraformaldehyde. After incubation at room temperature for 1 hour in the dark, blocking was done for 2 hours at room temperature. Primary antibodies for pAkt(S473) ([…] phosphorylated at serine 473), pAkt(T308) (Akt phosphorylated at threonine 308) and for pS6RP (S235/236) (phosphorylated at serine 235/236) (commercially available from Cell Signaling Technology®, whose protocol was followed for the in-cell western assay, were diluted to the required concentration and added to the corresponding wells followed by overnight incubation at 4° C. Eu-labeled rabbit (PE) (Perkin-Elmer USA catalog #AD0106) secondary antibody was added and incubated for 2 hours at room temperature. Delfia® enhancement solution (cat #1244-105, Perkin Elmer USA) was subsequently added to the plate before taking the reading at 615 nm with excitation wavelength of 340 nm, after which 0.5 μg/mL of Hoechst® 33258 dye (Catalog #86140-5, Sigma) was added to the plate and fluorescence emission was read at 460 nm with 355 nm excitation, to evaluate the correction factor. IC50 values were calculated using a sigmoidal dose-response curve fit in GraphPad Prism® v5 software.

The subject of assay [4] is pS6RP (S235/236). As to the kind of experiment: In-cell Western assay, pS6RP (S235/236), PC3 cells. The class given is cell-based. The note with it: Homo sapiens, PC-3, 2 hours incubation. On the procedure:
as §1

In assay [5] the test system is PC3 cells. As to the kind of experiment: XTT assay for cell viability, PC3 cells. The class given is cell-based. Conditions: Homo sapiens, PC-3; PC3 cell proliferation, 96 hours. An outline of the steps: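 Log-phase PC3 cells (1000/well) were seeded for 24 h, then exposed to serially diluted compounds (DMSO dilutions) for 96 h. Viability was measured by XTT dye conversion at 37 °C, with absorbance read at 465 nm. EC50 was obtained from a sigmoidal dose-response fit.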

For assay [6], the system named is pAkt(T308). Briefly: In-cell Western assay, pAkt(T308), PC3 cells. The class given is cell-based. Conditions: Homo sapiens, PC-3, 2 hours incubation. On the procedure: as §1

T1 sequence (P42336 whole entry, species assumed): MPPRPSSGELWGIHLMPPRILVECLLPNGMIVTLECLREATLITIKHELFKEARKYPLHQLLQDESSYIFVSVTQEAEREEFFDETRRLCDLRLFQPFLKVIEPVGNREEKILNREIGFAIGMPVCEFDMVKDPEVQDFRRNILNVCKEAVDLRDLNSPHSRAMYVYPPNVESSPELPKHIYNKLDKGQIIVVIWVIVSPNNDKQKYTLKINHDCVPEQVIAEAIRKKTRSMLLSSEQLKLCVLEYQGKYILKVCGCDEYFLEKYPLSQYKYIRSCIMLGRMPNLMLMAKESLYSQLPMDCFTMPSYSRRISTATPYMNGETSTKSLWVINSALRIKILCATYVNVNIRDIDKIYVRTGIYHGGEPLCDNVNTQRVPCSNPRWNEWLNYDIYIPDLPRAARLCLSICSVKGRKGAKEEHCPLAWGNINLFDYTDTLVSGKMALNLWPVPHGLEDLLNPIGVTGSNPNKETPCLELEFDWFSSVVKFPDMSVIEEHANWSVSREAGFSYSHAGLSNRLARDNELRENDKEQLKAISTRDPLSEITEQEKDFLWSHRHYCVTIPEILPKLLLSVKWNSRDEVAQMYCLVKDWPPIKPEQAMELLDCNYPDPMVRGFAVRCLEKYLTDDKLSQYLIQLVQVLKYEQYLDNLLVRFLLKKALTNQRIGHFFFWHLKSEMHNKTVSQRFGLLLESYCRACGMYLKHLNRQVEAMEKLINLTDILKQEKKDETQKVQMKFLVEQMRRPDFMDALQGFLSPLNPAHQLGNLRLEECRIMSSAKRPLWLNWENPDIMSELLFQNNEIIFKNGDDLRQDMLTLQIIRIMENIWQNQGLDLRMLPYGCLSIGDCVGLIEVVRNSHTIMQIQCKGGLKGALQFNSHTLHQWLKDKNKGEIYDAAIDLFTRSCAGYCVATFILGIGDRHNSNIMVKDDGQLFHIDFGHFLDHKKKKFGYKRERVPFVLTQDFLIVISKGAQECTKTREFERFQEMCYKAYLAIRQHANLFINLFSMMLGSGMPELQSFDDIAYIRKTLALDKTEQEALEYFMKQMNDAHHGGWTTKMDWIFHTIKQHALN
T1 sequence (P27986 whole entry partner, species assumed): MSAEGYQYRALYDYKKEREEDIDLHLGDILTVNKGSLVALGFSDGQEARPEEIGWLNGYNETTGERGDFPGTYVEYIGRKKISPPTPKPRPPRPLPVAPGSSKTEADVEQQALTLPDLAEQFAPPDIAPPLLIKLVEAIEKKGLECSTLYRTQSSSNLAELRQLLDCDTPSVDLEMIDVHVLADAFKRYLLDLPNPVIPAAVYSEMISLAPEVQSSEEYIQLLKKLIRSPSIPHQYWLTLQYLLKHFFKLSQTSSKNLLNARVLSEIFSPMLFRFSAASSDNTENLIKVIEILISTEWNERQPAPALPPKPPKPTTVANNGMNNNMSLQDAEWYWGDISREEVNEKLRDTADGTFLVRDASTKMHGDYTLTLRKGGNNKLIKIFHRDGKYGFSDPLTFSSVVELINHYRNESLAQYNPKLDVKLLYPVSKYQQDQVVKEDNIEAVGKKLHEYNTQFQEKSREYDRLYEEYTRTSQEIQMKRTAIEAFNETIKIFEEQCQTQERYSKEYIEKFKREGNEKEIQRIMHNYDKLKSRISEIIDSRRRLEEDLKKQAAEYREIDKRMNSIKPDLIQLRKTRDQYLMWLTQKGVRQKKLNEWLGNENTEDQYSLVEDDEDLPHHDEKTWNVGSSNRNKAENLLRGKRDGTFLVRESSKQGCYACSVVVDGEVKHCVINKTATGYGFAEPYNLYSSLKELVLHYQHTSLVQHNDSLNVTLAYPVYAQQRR

As a reminder, the IC50 is the concentration that inhibits the measured activity by half. As to `Nc1ncc(-c2nc(N3CCOCC3)c3ncc(-c4cncnc4)cc3n2)cn1` [Example 23, 5-(4-morpholino-7-(pyrimidin-5-yl)-pyrido[3,2-d]pyrimidin-2-yl)pyrimidin-2-amine], the IC50 was below 50 nM in assay [1]; 50 to 200 nM in assay [2]; 100 to 500 nM in assay [3]; 501 to 5000 nM in assay [4]; above 1000 nM in assay [5].

With `CN(C)CC(=O)Nc1cccc(-c2cnc3c(N4CCOCC4)nc(-c4cnc(N)nc4)nc3c2)c1` [Example 46, N-(3-(2-(2-amino-pyrimidin-5-yl)-4-morpholinopyrido[3,2-d]pyrimidin-7-yl)phenyl)-2-(dimethylamino)-acetamide], the IC50 was below 50 nM in assay [1], below 50 nM in assay [2], 501 to 5000 nM in assay [4] and 100 to 500 nM in assay [5].

Consider `Nc1ncc(-c2nc(N3CCOCC3)c3ncc(-c4cc(NC(=O)C5CC5)ccc4F)cc3n2)cn1` [Example 95, N-(3-(2-(2-amino-pyrimidin-5-yl)-4-morpholinopyrido[3,2-d]-pyrimidin-7-yl)-4-fluorophenyl)cyclopropane-carboxamide], for which the IC50 is below 50 nM in assay [1]; 50 to 200 nM in assay [2]; below 100 nM in assay [3]; 100 to 500 nM in assay [4]; 100 to 500 nM in assay [5].

Turning to `CC(=O)Nc1cccc(-c2cnc3c(N4CCOCC4)nc(-c4cnc(N)nc4)nc3c2)c1F` [Example 52, N-(3-(2-(2-amino-pyrimidin-5-yl)-4-morpholinopyrido[3,2-d]pyrimidin-7-yl)-2-fluorophenyl)acetamide], the half-inhibitory concentration (IC50) in assay [1] was below 50 nM; in assay [2] it was below 50 nM; in assay [6] it was below 100 nM; in assay [3], below 100 nM; in assay [4], below 100 nM; in assay [5], below 100 nM.

Consider `Cc1ccc(C(=O)Nc2cccc(-c3cnc4c(N5CCOCC5)nc(-c5cnc(N)nc5)nc4c3)c2)o1` [Example 59, N-(3-(2-(2-amino-pyrimidin-5-yl)-4-morpholinopyrido[3,2-d]pyrimidin-7-yl)phenyl)-5-methylfuran-2-carboxamide], for which the IC50 in assay [1] is below 50 nM; in assay [2] it was below 50 nM; in assay [6], 100 to 500 nM; in assay [3], below 100 nM; in assay [4] it was below 100 nM; in assay [5], 100 to 500 nM.

On to `CC(C)(C)C(=O)Nc1cccc(-c2cnc3c(N4CCOCC4)nc(-c4cnc(N)nc4)nc3c2)c1` [Example 118, N-(3-(2-(2-amino-pyrimidin-5-yl)-4-morpholinopyrido[3,2-d]pyrimidin-7-yl)-phenyl)pivalamide], for which the IC50 was below 50 nM in assay [1]; below 50 nM in assay [2]; 501 to 5000 nM in assay [3]; 501 to 5000 nM in assay [4]; 501 to 5000 nM in assay [5].

As for `CS(=O)(=O)c1cccc(-c2cc3nc(-c4cnc(N)nc4)nc(N4CCOCC4)c3cc2F)c1` [Example 2, 5-(6-Fluoro-7-(3-(methylsulfonyl)phenyl)-4-morpholinoquinazolin-2-yl)pyrimidin-2-amine], the IC50 in assay [1] was below 50 nM; in assay [2], 50 to 200 nM; in assay [4] it was 501 to 5000 nM; in assay [5], 501 to 5000 nM.

As to `Nc1ncc(-c2nc(N3CCOCC3)c3ncc(-c4cccc(NC(=O)CO)c4)cc3n2)cn1` [Example 50, N-(3-(2-(2-amino-pyrimidin-5-yl)-4-morpholinopyrido[3,2-d]pyrimidin-7-yl)phenyl)-2-hydroxyacetamide], the IC50 was below 50 nM in assay [1], below 50 nM in assay [2], 501 to 5000 nM in assay [6] and 100 to 500 nM in assay [5].

Regarding `CS(=O)(=O)c1cccc(-c2cnc3c(N4CCOCC4)nc(-c4cnc(N)nc4)nc3c2)c1` [Example 20, 5-(7-(3-(methyl-sulfonyl)phenyl)-4-morpholinopyrido[3,2-d]-pyrimidin-2-yl)pyrimidin-2-amine], the IC50 in assay [1] is below 50 nM; in assay [2], below 50 nM; in assay [4], 100 to 500 nM; in assay [5] it was 100 to 500 nM.

Turning to `Nc1ncc(-c2nc(N3CCOCC3)c3ncc(-c4cccc(NC(=O)c5cnccc5C(F)(F)F)c4)cc3n2)cn1` [Example 68, N-(3-(2-(2-amino-pyrimidin-5-yl)-4-morpholinopyrido[3,2-d]pyrimidin-7-yl)phenyl)-4-(trifluoromethyl)-nicotinamide], the IC50 in assay [1] was below 50 nM; in assay [2], below 50 nM; in assay [6], below 100 nM; in assay [5], 100 to 500 nM.

`Nc1ncc(-c2nc(N3CCOCC3)c3ncc(-c4ccc(NS(=O)(=O)C5CC5)cc4)cc3n2)cn1` [Example 82, N-(4-(2-(2-amino-pyrimidin-5-yl)-4-morpholinopyrido[3,2-d]-pyrimidin-7-yl)phenyl)-cyclopropanesulfonamide]: the IC50 was below 50 nM in assay [1], below 50 nM in assay [2], below 100 nM in assay [6] and 100 to 500 nM in assay [5].

As to `CC(=O)Nc1cccc(-c2cnc3c(N4CCOCC4)nc(-c4cnc(N)nc4)nc3c2)c1C` [Example 56, N-(3-(2-(2-amino-pyrimidin-5-yl)-4-morpholinopyrido[3,2-d]pyrimidin-7-yl)-2-methylphenyl)acetamide], the IC50 in assay [1] is below 50 nM; in assay [2], 50 to 200 nM; in assay [6] it was 100 to 500 nM; in assay [5] it was 100 to 500 nM.

Take `Nc1ncc(-c2nc(N3CCOCC3)c3ncc(-c4cccc(NC(=O)CN5CCOCC5)c4)cc3n2)cn1` [Example 84, N-(3-(2-(2-aminopyrimidin-5-yl)-4-morpholinopyrido[3,2-d]pyrimidin-7-yl)phenyl)-2-morpholinoacetamide]: the half-maximal inhibitory concentration (IC50) in assay [1] is below 50 nM; in assay [2], below 50 nM; in assay [6], 100 to 500 nM; in assay [5], 100 to 500 nM.

Consider `CC(O)C(=O)Nc1cccc(-c2cnc3c(N4CCOCC4)nc(-c4cnc(N)nc4)nc3c2)c1` (centres unmarked) [Example 45, N-(3-(2-(2-amino-pyrimidin-5-yl)-4-morpholinopyrido[3,2-d]pyrimidin-7-yl)phenyl)-2-hydroxypropanamide], for which the IC50 in assay [1] was below 50 nM; in assay [2], below 50 nM; in assay [6] it was 501 to 5000 nM; in assay [4] it was 100 to 500 nM; in assay [5], below 100 nM.

With `CC(C)(O)c1cccc(-c2cnc3c(N4CCOCC4)nc(-c4cnc(N)nc4)nc3c2)c1` [Example 109, 2-(3-(2-(2-amino-pyrimidin-5-yl)-4-morpholinopyrido[3,2-d]pyrimidin-7-yl)-phenyl)propan-2-ol], the IC50 is below 50 nM in assay [1], 50 to 200 nM in assay [2], 501 to 5000 nM in assay [6] and 100 to 500 nM in assay [5].

For the molecule `N#CCC(=O)Nc1cccc(-c2cnc3c(N4CCOCC4)nc(-c4cnc(N)nc4)nc3c2)c1` [Example 53, N-(3-(2-(2-amino-pyrimidin-5-yl)-4-morpholinopyrido[3,2-d]pyrimidin-7-yl)phenyl)-2-cyanoacetamide], the half-maximal inhibitory concentration (IC50) is below 50 nM in assay [1], below 50 nM in assay [2], 100 to 500 nM in assay [6] and 100 to 500 nM in assay [5].

Take `Nc1ncc(-c2nc(N3CCOCC3)c3ncc(-c4cccc(NC(=O)C5CCCC5)c4)cc3n2)cn1` [Example 57, N-(3-(2-(2-amino-pyrimidin-5-yl)-4-morpholinopyrido[3,2-d]pyrimidin-7-yl)-phenyl)cyclopentane-carboxamide]: the IC50 in assay [1] is below 50 nM; in assay [2], below 50 nM; in assay [6], 100 to 500 nM; in assay [5], 501 to 5000 nM.

For `CCC(=O)Nc1cccc(-c2cnc3c(N4CCOCC4)nc(-c4cnc(N)nc4)nc3c2)c1` [Example 104, N-(3-(2-(2-amino-pyrimidin-5-yl)-4-morpholinopyrido[3,2-d]-pyrimidin-7-yl)-phenyl)propionamide], the IC50 is below 50 nM in assay [1], below 50 nM in assay [2], below 100 nM in assay [6] and 100 to 500 nM in assay [5].
